In patent US8471005B2 (Cephalon, Inc., priority 2008, dated 2013):
pIC50: −log10 of the molar value. Where two headings read alike, the source gives them in different places.

Legend:
[1] = target: T1, JAK2 (Homo sapiens, UniProt O60674); test: Recombinant Human JAK2 Kinase Assay (TRF); type: biochemical; conditions: read-out: JAK2 Potency
T1 construct: host or cells: baculovirus expression system
Summary of the method: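 Baculovirus-expressed JAK2 (15 ng/ml) phosphorylated a biotinylated 15-mer peptide captured on Neutravidin, in 20 mM HEPES pH 7.2, 0.2 μM ATP, 1 mM MnCl2, 0.1% BSA, 2.5% DMSO final, 20 min at room temperature. Phosphoproduct detected by time-resolved fluorescence with Eu-N1-labelled PY100 antibody.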

[2] = target: T2, ALK (Homo sapiens, UniProt Q9UM73); test: ALK Kinase Assay (ELISA/TRF, PLC-γ substrate); type: biochemical; conditions: read-out: ALK Potency
T2 construct: host or cells: baculovirus expression system
Summary of the method: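 PLC-γ coat 10 μg/mL in TBS; ALK 30 ng/ml added to start; 37° C, 15 min; Eu-N1 PT66 antibody detection (TRF). IC50: % inhibition vs log10 [cpd], variable-slope sigmoidal fit.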

[3] = JAK2 kinase inhibition, 0.2 μM ATP
[4] = ALK kinase inhibition, 1 μM ATP

T1 sequence (O60674 whole entry): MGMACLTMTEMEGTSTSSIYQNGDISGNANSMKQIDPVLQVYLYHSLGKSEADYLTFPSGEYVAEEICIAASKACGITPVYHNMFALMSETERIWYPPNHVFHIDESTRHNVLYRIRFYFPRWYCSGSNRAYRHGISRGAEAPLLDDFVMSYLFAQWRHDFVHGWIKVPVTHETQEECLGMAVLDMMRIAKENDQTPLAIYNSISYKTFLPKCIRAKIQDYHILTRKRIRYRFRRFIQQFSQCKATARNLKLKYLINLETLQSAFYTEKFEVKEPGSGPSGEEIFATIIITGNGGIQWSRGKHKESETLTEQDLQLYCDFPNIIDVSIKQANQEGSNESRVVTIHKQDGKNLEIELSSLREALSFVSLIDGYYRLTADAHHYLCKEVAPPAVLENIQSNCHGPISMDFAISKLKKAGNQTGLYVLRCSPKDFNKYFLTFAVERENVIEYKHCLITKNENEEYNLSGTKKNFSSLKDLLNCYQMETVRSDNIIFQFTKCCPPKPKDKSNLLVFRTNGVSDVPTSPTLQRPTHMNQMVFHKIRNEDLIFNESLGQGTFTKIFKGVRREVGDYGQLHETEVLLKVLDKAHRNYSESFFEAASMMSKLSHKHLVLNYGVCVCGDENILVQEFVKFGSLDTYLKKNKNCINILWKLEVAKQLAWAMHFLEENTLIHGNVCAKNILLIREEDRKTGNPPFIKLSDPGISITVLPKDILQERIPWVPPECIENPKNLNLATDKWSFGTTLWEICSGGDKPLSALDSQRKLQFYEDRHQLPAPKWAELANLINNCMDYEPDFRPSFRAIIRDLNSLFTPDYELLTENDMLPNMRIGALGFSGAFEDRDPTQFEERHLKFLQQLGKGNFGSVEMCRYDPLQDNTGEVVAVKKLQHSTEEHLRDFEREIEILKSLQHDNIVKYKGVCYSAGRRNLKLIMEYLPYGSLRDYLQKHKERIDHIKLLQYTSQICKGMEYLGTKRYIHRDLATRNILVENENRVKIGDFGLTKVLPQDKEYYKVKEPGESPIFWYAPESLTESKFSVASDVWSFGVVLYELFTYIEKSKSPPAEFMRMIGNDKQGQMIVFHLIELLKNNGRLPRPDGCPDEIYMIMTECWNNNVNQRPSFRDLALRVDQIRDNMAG
T2 sequence (Q9UM73 19-1620): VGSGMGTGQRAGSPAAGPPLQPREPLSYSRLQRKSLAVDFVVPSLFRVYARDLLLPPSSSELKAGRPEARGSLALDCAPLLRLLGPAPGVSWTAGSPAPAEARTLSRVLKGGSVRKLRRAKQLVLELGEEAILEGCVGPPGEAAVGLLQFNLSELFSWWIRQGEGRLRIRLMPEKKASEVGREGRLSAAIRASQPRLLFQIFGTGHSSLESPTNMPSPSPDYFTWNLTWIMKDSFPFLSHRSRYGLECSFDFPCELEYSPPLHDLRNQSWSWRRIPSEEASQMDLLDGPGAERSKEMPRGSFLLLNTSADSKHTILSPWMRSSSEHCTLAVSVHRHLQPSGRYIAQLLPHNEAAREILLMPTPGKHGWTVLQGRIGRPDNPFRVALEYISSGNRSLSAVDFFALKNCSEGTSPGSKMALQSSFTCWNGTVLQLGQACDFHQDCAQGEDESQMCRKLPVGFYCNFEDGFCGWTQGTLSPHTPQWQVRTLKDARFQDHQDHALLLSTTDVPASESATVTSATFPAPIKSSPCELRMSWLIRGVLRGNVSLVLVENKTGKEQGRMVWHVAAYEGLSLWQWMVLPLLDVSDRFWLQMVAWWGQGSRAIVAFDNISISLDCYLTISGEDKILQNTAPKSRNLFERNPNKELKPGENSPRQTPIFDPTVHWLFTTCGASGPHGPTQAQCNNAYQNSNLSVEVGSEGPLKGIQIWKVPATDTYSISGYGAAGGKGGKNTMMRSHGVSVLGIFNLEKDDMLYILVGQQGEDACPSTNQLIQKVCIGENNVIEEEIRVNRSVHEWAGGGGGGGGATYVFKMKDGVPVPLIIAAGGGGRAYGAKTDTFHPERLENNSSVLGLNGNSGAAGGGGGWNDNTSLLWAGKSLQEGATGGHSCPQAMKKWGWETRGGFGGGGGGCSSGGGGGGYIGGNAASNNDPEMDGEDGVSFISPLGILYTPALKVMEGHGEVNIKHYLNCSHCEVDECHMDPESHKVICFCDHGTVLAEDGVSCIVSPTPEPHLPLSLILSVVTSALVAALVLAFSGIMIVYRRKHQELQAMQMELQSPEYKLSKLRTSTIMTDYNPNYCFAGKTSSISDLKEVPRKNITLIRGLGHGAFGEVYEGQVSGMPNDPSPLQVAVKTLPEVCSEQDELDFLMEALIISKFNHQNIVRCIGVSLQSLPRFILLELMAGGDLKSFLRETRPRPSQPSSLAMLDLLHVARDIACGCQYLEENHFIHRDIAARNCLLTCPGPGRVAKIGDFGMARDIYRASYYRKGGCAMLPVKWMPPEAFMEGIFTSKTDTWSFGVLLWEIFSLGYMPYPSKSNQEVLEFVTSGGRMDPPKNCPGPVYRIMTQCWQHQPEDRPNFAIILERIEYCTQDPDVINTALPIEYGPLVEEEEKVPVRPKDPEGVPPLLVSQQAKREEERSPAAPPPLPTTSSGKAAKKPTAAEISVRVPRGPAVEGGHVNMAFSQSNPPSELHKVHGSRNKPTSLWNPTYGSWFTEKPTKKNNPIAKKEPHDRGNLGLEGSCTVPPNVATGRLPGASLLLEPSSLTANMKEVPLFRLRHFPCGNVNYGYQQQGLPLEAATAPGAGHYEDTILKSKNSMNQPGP

Molecule	pIC50 [1, 3]	pIC50 [2, 4]	pIC50 ([1]; JAK2 Kinase Inhibition)	pIC50 ([2]; ALK Kinase Inhibition)
COc1cc(N2CCC(N(C)C)CC2)ccc1Nc1ncc2ccc(-c3ccccc3OC)n2n1 [Example 476, [4-(4-Dimethylamino-piperidin-1-yl)-2-methoxy-phenyl]-[7-(2-methoxy-phenyl)-pyrrolo[2,1-f][1,2,4]triazin-2-yl]-amine]	> 7.00	> 7.00	–	–
COc1cc(C2CCN(C[C@@H](C)O)CC2)ccc1Nc1ncc2ccc(-c3ccccc3OC)n2n1 [Example 787, (R)-1-(4-{3-Methoxy-4-[7-(2-methoxy-phenyl)-pyrrolo[2,1-f][1,2,4]triazin-2-ylamino]-phenyl}-piperidin-1-yl)-propan-2-ol]	6.00 to 7.00	> 7.00	–	–
COc1cc2c(cc1Nc1ncc3ccc(-c4cccc5c4OCC5)n3n1)CCN(CCO)CC2 [Example 704, 2-{7-[7-(2,3-Dihydro-benzofuran-7-yl)-pyrrolo[2,1-f][1,2,4]triazin-2-ylamino]-8-methoxy-1,2,4,5-tetrahydro-3-benzazepin-3-yl}-ethanol]	> 7.00	> 7.00	–	–
Cc1c(Nc2ncc3ccc(-c4ccccc4N(C)S(C)(=O)=O)n3n2)ccc2[nH]c(=O)oc12 [Example 1493, N-Methyl-N-{2-[2-(7-methyl-2-oxo-2,3-dihydro-benzoxazol-6-ylamino)-pyrrolo[2,1-f][1,2,4]triazin-7-yl]-phenyl}-methanesulfonamide]	–	–	6.00 to 7.00	6.00 to 7.00
N-{2-[2-(1-Methyl-2-oxo-2,3,4,5-tetrahydro-1H-benzo[b]azepin-7-ylamino)pyrrolo[2,1-f][1,2,4]triazin-7-yl]-phenyl}methanesulfonamide [Example 625]	> 7.00	6.00 to 7.00	–	–
CN1CCN(CC2CCN(c3ccc(Nc4ncc5ccc(-c6ccccc6N(C)S(C)(=O)=O)n5n4)cc3)CC2)CC1 [Example 450, N-Methyl-N-[2-(2-{4-[4-(4-methyl-piperazin-1-ylmethyl)-piperidin-1-yl]-phenylamino}-pyrrolo[2,1-f][1,2,4]triazin-7-yl)-phenyl]-methanesulfonamide]	–	–	> 7.00	> 7.00
COc1cc(C2CCN(CC(N)=O)CC2)ccc1Nc1ncc2ccc(-c3ncccc3OC)n2n1 [Example 1532, 2-(4-{3-Methoxy-4-[7-(3-methoxy-pyridin-2-yl)-pyrrolo[2,1-f][1,2,4]triazin-2-ylamino]-phenyl}-piperidin-1-yl)-acetamide]	–	–	5.00 to 6.00	5.00 to 6.00
7-(2-Methoxy-phenyl)-2-(2-methoxy-4-piperazin-1-ylmethyl-phenoxy)-pyrrolo[2,1-f][1,2,4]triazine [Example 1238]	6.00 to 7.00	> 7.00	–	–
CN(c1ccccc1-c1ccc2cnc(Nc3ccc4cn(CCN5CCOCC5)nc4c3)nn12)S(C)(=O)=O [Example 1342, N-Methyl-N-(2-{2-[2-(2-morpholin-4-yl-ethyl)-2H-indazol-6-ylamino]-pyrrolo[2,1-f][1,2,4]triazin-7-yl}-phenyl)-methanesulfonamide]	> 7.00	6.00 to 7.00	–	–
CN1CCCC1COc1cc(Nc2ncc3ccc(-c4cccc(S(C)(=O)=O)c4)n3n2)ccc1Cl (centres unmarked) [Example 1013, [4-Chloro-3-(1-methyl-pyrrolidin-2-ylmethoxy)-phenyl]-[7-(3-methanesulfonyl-phenyl)-pyrrolo[2,1-f][1,2,4]triazin-2-yl]-amine]	> 7.00	5.00 to 6.00	–	–
COc1cc(Nc2ncc3ccc(-c4cc(Cl)ccc4OC)n3n2)cc(OC)c1 [Example 157, [7-(5-Chloro-2-methoxy-phenyl)-pyrrolo[2,1-f][1,2,4]triazin-2-yl]-(3,5-dimethoxy-phenyl)-amine]	–	–	> 7.00	6.00 to 7.00
CC(C)(C)NS(=O)(=O)c1cccc(-c2ccc3cnc(Nc4ccc5c(c4)NC(=O)C(C)(C)O5)nn23)c1 [Example 1376, N-tert-Butyl-3-[2-(2,2-dimethyl-3-oxo-3,4-dihydro-2H-1,4-benzoxazin-6-ylamino)-pyrrolo[2,1-f][1,2,4]triazin-7-yl]-benzenesulfonamide]	–	–	> 7.00	5.00 to 6.00
Cn1cc(-c2ccc3cnc(Nc4ccc(N5CCN(CCO)CC5)cc4)nn23)cn1 [Example 1181, 2-(4-{4-[7-(1-Methyl-1H-pyrazol-4-yl)-pyrrolo[2,1-f][1,2,4]triazin-2-ylamino]-phenyl}-piperazin-1-yl)-ethanol]	> 7.00	6.00 to 7.00	–	–
CN1CCN(C(=O)C2CCN(c3ccc(Nc4ncc5ccc(-c6ccc(Cl)cc6O)n5n4)cc3)CC2)CC1 [Example 485, (1-{4-[7-(4-Chloro-2-hydroxy-phenyl)-pyrrolo[2,1-f][1,2,4]triazin-2-ylamino]-phenyl}-piperidin-4-yl)-(4-methyl-piperazin-1-yl)-methanone]	> 7.00	6.00 to 7.00	–	–
Cc1nc2cc(Nc3ncc4ccc(-c5cccc(S(=O)(=O)NC(C)(C)C)c5)n4n3)ccc2s1 [Example 574, N-tert-Butyl-3-[2-(2-methyl-benzothiazol-5-ylamino)-pyrrolo[2,1-f][1,2,4]triazin-7-yl]-benzenesulfonamide]	> 7.00	5.00 to 6.00	–	–
O=S1(=O)CCN(Cc2ccc(Nc3ncc4ccc(-c5cccnc5)n4n3)cc2)CC1 [Example 1050, [4-(1,1-Dioxo-1$1(6)-thiomorpholin-4-ylmethyl)-phenyl]-(7-pyridin-3-yl-pyrrolo[2,1-f][1,2,4]triazin-2-yl)-amine]	> 7.00	5.00 to 6.00	–	–
COc1cc(N2CCC(N(C)CCO)CC2)ccc1Nc1ncc2ccc(-c3ccccc3OC)n2n1 [Example 796, 2-[(1-{3-Methoxy-4-[7-(2-methoxy-phenyl)-pyrrolo[2,1-f][1,2,4]triazin-2-ylamino]-phenyl}-piperidin-4-yl)-methyl-amino]-ethanol]	> 7.00	> 7.00	–	–
O=S(=O)(c1cccc(-c2ccc3cnc(Nc4ccc(N5CCOCC5)cc4)nn23)c1)N1CCCC1 [Example 358, (4-Morpholin-4-yl-phenyl)-{7-[3-(pyrrolidine-1-sulfonyl)-phenyl]-pyrrolo[2,1-f][1,2,4]triazin-2-yl}-amine]	–	–	> 7.00	6.00 to 7.00
CC(C)(C)NS(=O)(=O)c1cccc(-c2ccc3cnc(Nc4ccc5ncsc5c4)nn23)c1 [Example 573, 3-[2-(Benzothiazol-6-ylamino)-pyrrolo[2,1-f][1,2,4]triazin-7-yl]-N-tert-butyl-benzenesulfonamide]	> 7.00	< 5.00	–	–
COc1cc(CCN2CCOCC2)ccc1Nc1ncc2ccc(-c3ccccc3OC)n2n1 [Example 492, [2-Methoxy-4-(2-morpholin-4-yl-ethyl)-phenyl]-[7-(2-methoxy-phenyl)-pyrrolo[2,1-f][1,2,4]triazin-2-yl]-amine]	6.00 to 7.00	> 7.00	–	–
CC(=O)Nc1cccc(Nc2ncc3ccc(-c4ccccc4NS(C)(=O)=O)n3n2)c1 [Example 1382, N-{3-[7-(2-Methanesulfonylamino-phenyl)-pyrrolo[2,1-f][1,2,4]triazin-2-ylamino]-phenyl}-acetamide]	–	–	> 7.00	5.00 to 6.00
COc1cc(CN2CCN(C(=O)CNC(=O)OC(C)(C)C)CC2)ccc1Nc1ncc2ccc(-c3ccccc3OC)n2n1 [Example 1242, [2-(4-{3-Methoxy-4-[7-(2-methoxy-phenyl)-pyrrolo[2,1-f][1,2,4]triazin-2-ylamino]-benzyl}-piperazin-1-yl)-2-oxo-ethyl]-carbamic acid tert-butyl ester]	6.00 to 7.00	6.00 to 7.00	–	–
COc1cc(N2CCN(C)CC2)ccc1Nc1ncc2ccc(-c3ccccc3S(=O)(=O)N(C)C)n2n1 [Example 35, 2-{2-[2-Methoxy-4-(4-methyl-piperazin-1-yl)-phenylamino]-pyrrolo[2,1-f][1,2,4]triazin-7-yl}-N,N-dimethyl-benzenesulfonamide]	–	–	5.00 to 6.00	6.00 to 7.00
COc1cc(N2CCC(N3CCN(C)CC3)CC2)ccc1Nc1ncc2ccc(-c3ccccc3OC)n2n1 [Example 251, {2-Methoxy-4-[4-(4-methyl-piperazin-1-yl)-piperidin-1-yl]-phenyl}-[7-(2-methoxy-phenyl)-pyrrolo[2,1-f][1,2,4]triazin-2-yl]-amine]	–	–	> 7.00	> 7.00
CN1CCC(c2ccc(Nc3ncc4ccc(-c5cccc(S(C)(=O)=O)c5)n4n3)cc2)CC1 [Example 1120, [7-(3-Methanesulfonyl-phenyl)-pyrrolo[2,1-f][1,2,4]triazin-2-yl]-[4-(1-methyl-piperidin-4-yl)-phenyl]-amine]	> 7.00	6.00 to 7.00	–	–
COc1cc(CN2CCN(CC(O)CF)CC2)ccc1Nc1ncc2ccc(-c3ccccc3OC)n2n1 (centres unmarked) [Example 1243, 1-Fluoro-3-(4-{3-methoxy-4-[7-(2-methoxy-phenyl)-pyrrolo[2,1-f][1,2,4]triazin-2-ylamino]-benzyl}-piperazin-1-yl)-propan-2-ol]	6.00 to 7.00	> 7.00	–	–
COc1cc(N2CCC(N3CCOCC3)CC2)ccc1Nc1ncc2ccc(-c3ccccc3C(C)=O)n2n1 [Example 1454, 1-(2-{2-[2-Methoxy-4-(4-morpholin-4-yl-piperidin-1-yl)-phenylamino]-pyrrolo[2,1-f][1,2,4]triazin-7-yl}-phenyl)-ethanone]	–	–	6.00 to 7.00	> 7.00
COc1ccccc1-c1ccc2cnc(Nc3ccc4cnn(CCN5CCOCC5)c4c3)nn12 [Example 1347, [7-(2-Methoxy-phenyl)-pyrrolo[2,1-f][1,2,4]triazin-2-yl]-[1-(2-morpholin-4-yl-ethyl)-1H-indazol-6-yl]-amine]	> 7.00	5.00 to 6.00	–	–
